Experimental data taken from patent US6274606A, “Methods of treating central nervous system disorders with aryl substituted olefinic amine compounds” (Targacept, Inc., priority 1998, dated 2001).

Assays:
Type in all cases: cell-based
muscle receptors = biological target: T1, muscle receptors (Homo sapiens, UniProt P02708+P07510+Q07001); conditions: muscle cell preparations
T1 construct: endogenous in cells; host or cells: cell preparations derived from muscle

CNS nicotinic receptors = test: Determination of Dopamine Release
Description: As such, these compounds have the ability to cause relevant neurons to release or secrete acetylcholine, dopamine, and other neurotransmitters. […] Certain compounds of the present invention can provide secretion of dopamine in an amount which can exceed that elicited by an equal molar amount of (S)-(-)-nicotine.
Determination of Dolpamine Release
Dopamine release was measured using the techniques described in U.S. Pat. No. 5,597,919 to Dull et al., the subject matter of which is already incorporated herein by reference in its entirety. […] Reported EC50 is expressed in nM and Emax represent the amount released relative to nicotine.

ganglionic receptors = biological target: T2, ganglionic receptors (Rattus norvegicus, UniProt P04757+P12392); test: cell-based; conditions: for Ganglion Effect (% nicotine): ganglionic cell preparations
T2 construct: endogenous in cells; host or cells: cell preparations derived from the adrenal gland
T2 sequence (P04757 26-499): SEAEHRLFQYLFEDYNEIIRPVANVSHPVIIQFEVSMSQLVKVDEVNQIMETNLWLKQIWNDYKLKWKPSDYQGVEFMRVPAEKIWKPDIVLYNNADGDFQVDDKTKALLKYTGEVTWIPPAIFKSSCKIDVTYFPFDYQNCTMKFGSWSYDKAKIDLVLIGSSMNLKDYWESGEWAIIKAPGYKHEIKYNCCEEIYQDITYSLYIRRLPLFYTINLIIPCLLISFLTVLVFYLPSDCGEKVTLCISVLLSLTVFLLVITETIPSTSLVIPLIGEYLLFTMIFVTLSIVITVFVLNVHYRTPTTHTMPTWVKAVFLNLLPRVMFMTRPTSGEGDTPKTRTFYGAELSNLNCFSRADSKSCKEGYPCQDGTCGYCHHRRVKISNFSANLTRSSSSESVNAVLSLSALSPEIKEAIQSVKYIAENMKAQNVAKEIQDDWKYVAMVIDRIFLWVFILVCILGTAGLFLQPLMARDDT
T2 sequence (P12392 21-495): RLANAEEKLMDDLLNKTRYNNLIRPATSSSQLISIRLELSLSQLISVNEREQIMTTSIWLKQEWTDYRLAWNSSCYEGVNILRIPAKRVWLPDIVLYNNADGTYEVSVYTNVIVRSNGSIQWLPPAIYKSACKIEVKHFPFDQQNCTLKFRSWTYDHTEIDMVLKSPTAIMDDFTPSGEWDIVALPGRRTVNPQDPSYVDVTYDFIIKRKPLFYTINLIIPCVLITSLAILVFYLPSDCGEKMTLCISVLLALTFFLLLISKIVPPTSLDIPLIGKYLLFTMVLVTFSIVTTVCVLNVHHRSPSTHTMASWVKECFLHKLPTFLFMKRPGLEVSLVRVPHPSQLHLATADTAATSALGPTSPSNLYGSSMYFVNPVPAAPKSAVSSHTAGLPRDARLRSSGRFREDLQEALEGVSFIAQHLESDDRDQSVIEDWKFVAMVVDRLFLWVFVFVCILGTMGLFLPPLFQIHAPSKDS

T1 sequence (P07510 23-517): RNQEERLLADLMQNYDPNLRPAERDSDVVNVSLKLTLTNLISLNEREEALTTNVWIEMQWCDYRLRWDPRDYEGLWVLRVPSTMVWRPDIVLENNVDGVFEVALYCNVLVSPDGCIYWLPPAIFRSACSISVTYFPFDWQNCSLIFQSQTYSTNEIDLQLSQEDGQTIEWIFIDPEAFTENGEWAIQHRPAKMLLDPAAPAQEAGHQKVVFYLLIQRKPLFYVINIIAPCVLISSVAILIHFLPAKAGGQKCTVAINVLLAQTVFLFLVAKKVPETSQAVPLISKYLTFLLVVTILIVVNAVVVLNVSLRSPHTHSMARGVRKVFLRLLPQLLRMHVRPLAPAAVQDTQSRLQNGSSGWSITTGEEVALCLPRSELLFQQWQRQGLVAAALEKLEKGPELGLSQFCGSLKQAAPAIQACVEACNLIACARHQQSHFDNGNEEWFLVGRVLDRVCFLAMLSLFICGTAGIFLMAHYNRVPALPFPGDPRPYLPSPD
T1 sequence (P11230 24-501, further chain): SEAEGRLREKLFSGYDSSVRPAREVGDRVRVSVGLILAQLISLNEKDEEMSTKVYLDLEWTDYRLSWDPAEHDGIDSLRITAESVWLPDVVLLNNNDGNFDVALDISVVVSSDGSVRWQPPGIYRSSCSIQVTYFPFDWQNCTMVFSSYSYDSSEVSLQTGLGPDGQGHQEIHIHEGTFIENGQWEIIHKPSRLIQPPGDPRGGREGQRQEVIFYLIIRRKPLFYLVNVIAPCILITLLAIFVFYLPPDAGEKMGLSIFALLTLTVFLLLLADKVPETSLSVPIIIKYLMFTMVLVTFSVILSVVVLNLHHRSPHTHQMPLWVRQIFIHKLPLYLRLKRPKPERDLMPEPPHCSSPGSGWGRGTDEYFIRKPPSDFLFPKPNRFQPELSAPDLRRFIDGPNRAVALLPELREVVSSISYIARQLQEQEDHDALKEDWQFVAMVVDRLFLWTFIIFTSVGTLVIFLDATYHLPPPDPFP
T1 sequence (Q07001 22-517): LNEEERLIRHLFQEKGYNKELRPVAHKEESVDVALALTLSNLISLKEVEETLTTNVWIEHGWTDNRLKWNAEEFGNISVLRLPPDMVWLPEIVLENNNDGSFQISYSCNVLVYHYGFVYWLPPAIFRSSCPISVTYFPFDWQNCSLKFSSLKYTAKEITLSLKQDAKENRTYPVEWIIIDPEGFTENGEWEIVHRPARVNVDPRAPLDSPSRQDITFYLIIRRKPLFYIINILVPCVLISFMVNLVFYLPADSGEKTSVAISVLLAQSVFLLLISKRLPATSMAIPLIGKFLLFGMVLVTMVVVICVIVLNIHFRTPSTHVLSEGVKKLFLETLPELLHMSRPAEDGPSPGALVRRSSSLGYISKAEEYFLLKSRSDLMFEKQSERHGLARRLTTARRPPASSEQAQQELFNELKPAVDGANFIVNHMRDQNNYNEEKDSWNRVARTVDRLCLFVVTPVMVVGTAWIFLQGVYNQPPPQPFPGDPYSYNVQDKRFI
T1 sequence (P02708 21-457): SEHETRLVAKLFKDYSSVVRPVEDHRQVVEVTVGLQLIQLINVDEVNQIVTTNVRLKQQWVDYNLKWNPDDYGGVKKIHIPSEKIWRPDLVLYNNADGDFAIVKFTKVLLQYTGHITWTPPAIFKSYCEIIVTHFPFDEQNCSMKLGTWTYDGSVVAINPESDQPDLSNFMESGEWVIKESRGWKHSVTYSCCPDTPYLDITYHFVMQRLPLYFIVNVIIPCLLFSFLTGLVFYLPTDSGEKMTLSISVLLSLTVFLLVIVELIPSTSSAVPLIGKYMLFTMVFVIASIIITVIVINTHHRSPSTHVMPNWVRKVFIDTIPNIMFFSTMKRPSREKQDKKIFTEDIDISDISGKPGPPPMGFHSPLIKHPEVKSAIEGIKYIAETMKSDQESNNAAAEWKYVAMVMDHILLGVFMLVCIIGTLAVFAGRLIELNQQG

SMILES | Ganglion Effect (% nicotine) (ganglionic receptors) | also measured
NCC/C=C/c1cncc(Br)c1 [Sample No. 2, (E)-4-[3-(5-Bromopyridin)yl]-3-buten-1-amine Hemifumarate] | 11 | Muscle Effect (% nicotine) (muscle receptors): 8; EC50 (CNS nicotinic receptors): 2400 nM; Dopamine Release Emax (CNS nicotinic receptors; percentage of release obtained with a concentration of (S)-(-)-nicotine resulting in maximal effects): 107%
CNCC/C=C/c1cncc(OCc2ccccc2)c1 [Sample No. 1, (E)-N-Methyl-4-[3-(5-benzyloxypyridin)yl]-3-buten-1-amine] | 0 | –
CNCC/C=C/c1cncc(COC)c1 [Sample No. 5, (E)-N-Methyl-4-[3-(5-methoxymethylpyridin)yl]-3-buten-1-amine] | 0 | –
CCOc1cncc(/C=C/CCNC)c1 [Sample No. 7, (E)-N-Methyl-4-[3-(5-ethoxypyridin)yl]-3-buten-1-amine Sesquifumarate] | – | Emax (ganglionic receptors; read-out: Ganglion Effect (% nicotine)): < 15%
CNCC/C=C/c1cncc(-c2ccccc2)c1 [Sample No. 8, (E)-N-Methyl-4-[3-(5-phenylpyridin)yl]-3-buten-1-amine] | 0 | –
CNCC/C=C/c1cncc(OC(C)C)c1 [Sample No. 4, (E)-N-Methyl-4-[3-(5-isopropoxypyridin)yl]-3-buten-1-amine] | < 15 | –
NCC/C=C/c1cccnc1.O=C(O)/C=C/C(=O)O.O=C(O)/C=C/C(=O)O [Sample No. 6, (E)-4-(3-pyridinyl)-3-buten-1-amine difumarate] | 23 | –
CNCC/C=C/c1cncc(Oc2ccccc2)c1 [Sample No. 3, (E)-N-Methyl-4-[3-(5-phenoxypyridin)yl]-3-buten-1-amine] | < 15 | –
CNCC/C=C/c1cncc(N)c1 [Sample No. 9, (E)-N-methyl-4-[3-(5-aminopyridin)yl]-3-buten-1-amine] | 4 | –
